Molecules are shown by their SMILES.

The subject of one experiment is SARS-CoV-2. The experiment in a line: SARS-CoV-2 viral load reduction assay in VeroE6 cells. It is filed as cell-based. Particulars: 10 µM, MOI 0.1, 48 hpi, qRT-PCR of supernatant. On the procedure:
Fig 3 In vitro antiviral activity of selected compounds. VeroE6 cells were infected with SARS-CoV-2 (multiplicity of infection [MOI] of 0.1) and treated with various concentrations of H102, PF-07321332, GC376, or vehicle control. Viral RNA load in the cell culture supernatant samples was quantified by qRT-PCR. All experiments were performed in triplicate, and the values are presented as mean ± SD. P-values were calculated using Student’s t-test to compare each compound candidate with vehicle control. *P < 0.05.
Viral load reduction assay was performed for the evaluation of antiviral activity as we described previously ([34]). Briefly, SARS-CoV-2-infected VeroE6 cells were treated with different concentrations of compounds or dimethyl sulfoxide (DMSO) control. Then, cell culture supernatant samples were collected at 48 h post-inoculation (hpi) for qRT-PCR analysis of viral RNA load. Culture supernatant was lysed with buffer AVL and then extracted for total RNA with the QIAamp viral RNA mini kit (Qiagen). qRT-PCR was used for quantitation of SARS-CoV-2 viral load using the QuantiNova Probe RT-PCR kit (Qiagen) with a LightCycler 480 Real-Time PCR System (Roche). […]
In general terms: In qPCR the cycle at which signal appears reflects the starting amount.

The target of another experiment is SARS-CoV-2 M^pro (Severe acute respiratory syndrome coronavirus 2, UniProt P0DTD1). As to the kind of experiment: SARS-CoV-2 M^pro enzyme inhibition assay (FRET substrate). It is filed as biochemical. The note with it: for IC50: 150 nM enzyme, 30 min preincubation, 25 µM substrate, mean ± SD.
For a further experiment, the system named is SARS-CoV M^pro. The note with it: SARS-CoV M^pro ref 27; cited from earlier work.

For the compound `CC(C)C[C@H](NC(=O)OCc1ccccc1)C(=O)N[C@@H](C[C@@H]1CCNC1=O)C(O)S(=O)(=O)[O-].[Na+]` (some centres unmarked) [GC376], the “reduction in viral RNA load” value with SARS-CoV-2 is on record as 3.93 log10.
In the case of `COc1ccc(C[C@H](NC(=O)[C@H](C)NC(=O)OC(C)(C)C)C(=O)N[C@@H](C[C@@H]2CCNC2=O)C(=O)C(=O)Nc2cccc(C(C)=O)c2)cc1` [H94], at SARS-CoV-2 M^pro, the concentration for half-maximal inhibition (IC50) (usually the concentration needed to halve the response being measured) amounted to 24.8 ± 2.3 µM.
As for `COc1ccc(C[C@H](NC(=O)[C@H](C)NC(=O)c2cnc(-c3ccc(C(C)=O)cc3)s2)C(=O)N[C@@H](C[C@@H]2CCNC2=O)C(=O)C(=O)Nc2cccc(C(C)=O)c2)cc1` [H96], the IC50 at SARS-CoV-2 M^pro was found to be 9.4 ± 3 µM. In addition, the “increase in M^pro inhibitory potency compared to compound 17” value on SARS-CoV-2 M^pro (vs compound 17) is on record as over 10 fold.
Regarding `COc1ccc(C[C@H](NC(=O)[C@@H](NC(=O)OC(C)(C)C)C(C)(C)C)C(=O)N[C@@H](C[C@@H]2CCNC2=O)C(=O)C(=O)Nc2cccc(C(C)=O)c2)cc1` [H97], on SARS-CoV-2 M^pro, it took 6.3 ± 2.7 µM to reach half-maximal inhibition (IC50).
Still for that read-out and setting: the value for `COc1ccc(C[C@H](NC(=O)[C@@H](NC(=O)OC(C)(C)C)C(C)C)C(=O)N[C@@H](C[C@@H]2CCNC2=O)C(=O)C(=O)Nc2cccc(C(C)=O)c2)cc1` [H98] was 8.7 ± 2.5 µM.
For `COc1ccc(C[C@H](NC(=O)[C@H](CC(C)C)NC(=O)OC(C)(C)C)C(=O)N[C@@H](C[C@@H]2CCNC2=O)C(=O)C(=O)Nc2cccc(C(C)=O)c2)cc1` [H99], on SARS-CoV-2 M^pro, the concentration for half-maximal inhibition (IC50) was determined as 9.9 ± 4.7 µM.
On to `CC(=O)c1cccc(NC(=O)C(=O)[C@H](C[C@@H]2CCNC2=O)NC(=O)[C@H](CC(C)C)NC(=O)[C@@H](NC(=O)OC(C)(C)C)C(C)(C)C)c1` [H101], for which half-maximal inhibition against SARS-CoV-2 M^pro (IC50) was put at 3.8 ± 0.4 µM.
On SARS-CoV-2 M^pro, `COC[C@H](NC(=O)OC(C)(C)C)C(=O)N[C@@H](Cc1ccc(OC)cc1)C(=O)N[C@@H](C[C@@H]1CCNC1=O)C(=O)C(=O)Nc1cccc(C(C)=O)c1` [H137] came in with a half-inhibitory concentration (IC50) of 28.9 ± 3.8 µM.
Consider `CC(C)(C)[C@H](NC(=O)C(F)(F)F)C(=O)N1C[C@H]2[C@@H]([C@H]1C(=O)N[C@H](C#N)C[C@@H]1CCNC1=O)C2(C)C` [PF-07321332, Nirmatrelvir], for which the “reduction in viral RNA load” value in the experiment on SARS-CoV-2 came out at 3.48 log10.
Turning to `COC(=O)[C@H](C[C@@H]1CCNC1=O)NC(=O)OC(C)(C)C` [compound 3], the IC50 in the experiment with SARS-CoV M^pro is 0.3 µM.

These data come from PMC12548382, “Discovery of a potent covalent inhibitor that unusually distorts the catalytic dyad of SARS-CoV-2 main protease” (Journal of Virology, 2025).
